Experimental data from a melting point compilation (Tetko et al.; mined from patent text by program, amines drawn as free bases though some values may be those of a salt).
Residues, ends and D or L forms follow the SMILES beside them. *: point of attachment. Cbz = O=C(OCc1ccccc1)*

| melting point | SMILES |
| --- | --- |
| 83.5 to 85.5 °C | Cn1nnnc1S(=O)(=O)CCCCBr |
| 152 to 154 °C | O=C(Nc1cccc(Oc2cccc(C(=O)O)c2)c1)NC12CC3CC(CC(C3)C1)C2 |
| 232 to 237 °C | Cc1cc2cc(CN3CCCC3)cnc2cc1NC(=O)c1ccc(-c2ccc(Cl)cc2)nc1 |
| 84 to 87 °C | CCNC(=O)NCc1ccc(/C=C/C(c2cc(Cl)c(Cl)c(Cl)c2)C(F)(F)F)c2ccccc12 (centres undefined) |
| 116 to 118 °C | Cc1cccc(-c2nc(-c3ccc(S(C)(=O)=O)cc3)sc2-c2ccnc(Sc3ccccc3)c2)c1 |
| 40 to 41 °C | COc1ccc(C(=O)CCCCCBr)cc1 |
| 153 to 154 °C | N#CCCNC(=O)c1cccc(-c2ccnc3cc(Cc4cccc(C(F)(F)F)c4)nn23)c1 |
| 90 °C | COC(=O)CCCc1cc2nc(Cl)ccc2n1S(=O)(=O)c1cccc(OC)c1 |
| 146 to 148 °C | O=C(Nc1ccc(-n2nc(C(F)(F)F)cc2C(F)(F)F)cc1)C1=CCCCC1 |
| 175 °C | N=C(N)NCCCC(NC(=O)C1CCCN1C(=O)C(CCCCNC(=O)OCc1ccccc1)NC(=O)CNC(=O)OCc1ccccc1)C(=O)O (centres undefined) (Cbz-GK(Cbz)PR-OH; configuration not given here) |
| 243 to 245 °C | O=C1c2ccc(Cl)c3c(N4CCCC4)cc(Cl)c(c23)C(=O)N1O |
| 87.5 to 90 °C | COC(=O)C(Oc1ccc(Cl)c2c1CCCC2)c1ccc(Oc2ccc(Cl)cc2)cc1 (centres undefined) |
| 144 to 146 °C | CCCCCOc1cc(C(=O)O)cc([N+](=O)[O-])c1-c1ccccc1 |
| 86 °C | C1COCCN2CCSCCSCCN(CCO1)CCSCCSCC2 |
| 320 to 323 °C | Cn1c(=O)c(-c2ccc(Cl)cc2Cl)cc2c3cc(-c4ccno4)ccc3[nH]c21 |
| 209 to 210 °C | Cc1cc(-c2nc3cc(Cl)cc(Cl)c3c(=O)[nH]2)cc(C)c1OCCN1CCCC1 |
| 240 to 242 °C | Cc1cccc(NC(=O)C2=C(O)c3ccc4ccccc4c3S(=O)(=O)N2C)c1 |
| 153 °C | CC1(C)CCC(C(=O)N2CCC[C@H]2C(=O)O)C1S (some centres undefined) |
| 92.6 to 99 °C | COc1nc2cc(Cl)c(Cl)cc2nc1N1CCN(C)CC1 |
| 83 to 84 °C | CC(C)c1cc2c(cc1CSCC(=O)O)OCO2 |
| 165 to 167 °C | C#CC(=O)NCc1ccccc1 |
| 283 to 285 °C | O=C1NC(=O)C(c2c[nH]c3ccccc23)C1C(=O)c1cn2c3c(cccc13)CCC2 (centres undefined) |

| melting point | SMILES |
| --- | --- |
| 153 to 155 °C | O=C1NCCC[C@@H]1NS(=O)(=O)c1ccc(F)c(F)c1 |
| 129 to 130 °C | COc1ccccc1C(=NO)c1sccc1Br |
| 82 °C | COc1ccc2oc(Cc3cccc(Cl)c3)c(CC#N)c2c1 |
| 82 to 84 °C | CC(C)(C)C(=O)Nc1nc(OCCCCOCc2ccccc2)ccc1C=O |
| 244 to 246 °C | N#CC(C#N)=C1c2ccsc2-c2c1cc([N+](=O)[O-])cc2[N+](=O)[O-] |
| 78 to 81 °C | C=CCOC(=O)c1c(C)nc2c(cnn2C/C=C\CC)c1N |
| 68 to 69 °C | COC(=O)c1cccc(Oc2cccc(Br)n2)c1 |
| 242 to 243 °C | CCCCc1ccc(C(=O)NCc2c[nH]c(=S)n2[C@H]2CCc3c(F)cc(F)cc3C2)cc1 |
| 118 to 120 °C | COc1ccc(C)cc1NC(=O)Nc1ccc(N2CCCN(C(=O)Nc3ccc(OCCO)cc3C(F)(F)F)CC2)cc1 |
| 194 to 196 °C | CC(=O)c1ccc(Nc2cc(C)nc(N)n2)cc1 |
| 68.8 to 70.9 °C | OCC[C@H](O)COC(c1ccccc1)(c1ccccc1)c1ccccc1 |
| 141 to 142 °C | COC1=C(OC)C(=O)c2c(cccc2S(=O)(=O)c2ccccc2)C1=O |
| 128 to 131 °C | Cc1cccc(-c2[nH]c(C(C)C)nc2-c2cccc(-c3ccc4c(c3)CCS4(=O)=O)c2)n1 |
| 51 to 52 °C | CCN(C(=O)c1ccc2nonc2c1)C1CCCCC1 |
| 93 to 95 °C | COC(=O)c1cncn1C1c2ccccc2C(=O)CC1(C)C (centres undefined) |
| 71 to 72 °C | CCCCS(=O)(=O)c1c(Cl)nc(Cl)nc1Cl |
| 112 to 113 °C | CCCCCCC(=N)NC(=S)Nc1ccc(Cl)cc1 |
| 172 to 174 °C | COCOc1cc(F)ccc1-c1cc(-c2cccc(NC(=O)CCN(C)C(=O)OC(C)(C)C)c2)c(C#N)c(NC(=O)c2ccco2)n1 |
| 204 to 208 °C | O=C1NC(=O)C2CC(SC3=CCC4C(=O)NC(=O)C4C3)=CCC12 (centres undefined) |
| 179 to 180 °C | CCc1nc2c(N)nc3ccccc3c2n1CCCCNC(=O)C1CCCC1 |
| 218 to 220 °C | COc1ccc(-c2c(Cl)c(CN3C(=O)CCC3=O)nc3sc4c(c23)CCC(O)C4)cc1 (centres undefined) |

More lines, now with the values behind:

| SMILES | melting point |
| --- | --- |
| O=C1N(CC2CCOCC2)c2ccccc2C12COc1cc3c(cc12)OCCO3 (centres undefined) | 129 to 131 °C |
| CC(C)c1cccc(C(C)C)c1NC(=O)C1CCCC(Cc2ccccn2)(c2ccccc2)C1=O (centres undefined) | 164 to 166 °C |
| Cn1nc(C(F)(F)F)c(C(=O)O)c1F | 165 to 166 °C |
| Cc1cc(NC(=O)NS(=O)(=O)c2ccccc2)cc(C)c1S(=O)(=O)C[N+](=O)[O-] | 140 to 142 °C |
| O=S(=O)(NCCCN1c2ccccc2CCc2ccc(Cl)cc21)c1ccc(OC(F)(F)F)cc1 | 119 to 121 °C |
| OC1(c2ccc3c(c2)OCO3)CCN(CC=Cc2ccccc2)CC1 | 114 to 115 °C |
| COc1ccc(-c2cnccn2)cc1 | 86 to 87 °C |
| COC(=O)[C@@H]1O[C@H](c2ccc(OC)cc2)N(C(=O)OC(C)(C)C)[C@H]1c1ccccc1 | 104 to 105 °C |
| CC(C)(C)c1ccc(S(=O)(=O)CC(=O)N=C=O)cc1 | 163 °C |
| Cc1noc2cc3c(cc12)C1(CO3)C(=O)N(Cc2ccccc2C(F)(F)F)c2ccccc21 (centres undefined) | 192 to 194 °C |
| O=C1N[C@@H](Cc2ccccc2)C(=O)N/C1=C\c1ccccc1 | 275 to 276 °C |
| CC(=O)OC(c1ccc(Cl)c2nc3n(c12)CCCN3c1ccc(Cl)cc1Cl)C1CC1 (centres undefined) | 208 to 210 °C |
| CCOC(=O)c1cc2c3ccccc3n(CCCc3ccccc3)c2cn1 | 140 to 142 °C |
| Nc1ccc(C(=O)c2ccccc2)cc1COC1CCCCO1 (centres undefined) | 164 °C |
| CCC(O)(c1ccc(O)cc1)c1ccc(Cl)cc1 (centres undefined) | 148 to 149 °C |
| OCCN1CCN(CC2CCn3c(nc4ccccc43)S2)CC1 (centres undefined) | 68 to 70 °C |
| CN(c1ccc2ccccc2c1)S(=O)(=O)C(Cc1ccccc1)C(=O)NC(Cc1ccc(C#N)cc1)C(=O)N1CCCC1 (centres undefined) | 186 °C |
| Cc1nc(N2CCc3ccccc3CC2)c(C#N)c(=O)n1CC(F)(F)F | 108 to 110 °C |
| C#CCOc1ccc2c(C)cc(=O)oc2c1C(=O)C=Cc1ccccc1 | 140 to 142 °C |

| SMILES | melting point |
| --- | --- |
| COc1cc(/C=C/C(=O)/C=C/C(=O)O)cc(OC)c1OC | 152 to 154 °C |
| CC1(C)NC(=O)CN1C(=O)CCl | 151 to 153 °C |
| CN(C)C(=O)c1cccnc1S(=O)(=O)Cl | 114 to 117 °C |
| CCC1C(C)=NN=C(c2ccc(O)c(OC)c2)c2cc(OC)c(OC)cc21 (centres undefined) | 130 to 132 °C |
| COC(=O)C1=C(C)OC(C)=C(C(=O)OC)C1c1ccccc1 | 62.5 °C |
| O=[N+]([O-])N=C1NCCN1Cc1ccc(F)nc1 | 121 to 124 °C |
| CC(C(=O)c1ccc(F)cc1)N1CCC(O)(Cc2ccccc2)CC1 (centres undefined) | 120 °C |
| COc1ccc(-c2[nH]c3ncnc(Nc4cccc(Cl)c4)c3c2C)cc1 | 265 to 268 °C |
| Cc1cccc(Nc2ccccc2C=O)c1C | 45 to 47 °C |
| COc1cccc(OC)c1-c1cc(C(=O)NC2(C(=O)O)C3CC4CC(C3)CC2C4)nn1-c1ccc(N)cc1C (centres undefined) | 205 °C |
| CC(=O)c1ccc(C=C(C)c2ccc3c(c2)C(C)(C)CCO3)cc1 | 109 to 110 °C |
| Nc1cccc(NC(=O)Nc2ccc(N(CCCl)CCCl)cc2)c1 | 182 to 183 °C |
| Cc1cc(=S)cc(C)n1CCN | 162 to 164 °C |
| Cc1ccc2c(c1)[C@H]1Cc3ccccc3[C@H]1N2C (relative stereo) | 54 °C |
| CCCc1c(OCCCCC(=O)c2ccc3cc(O)c(O)cc3c2)ccc(C(=O)O)c1O | 213 to 214 °C |
| O=C(O)c1ccc(-c2nnc(-c3ccc(C(F)(F)F)cc3)o2)cc1 | > 300 °C |
| CCNC(=O)N1CC(Oc2ccc(C(F)(F)F)cc2)C1 | 94 to 96 °C |
| C=CC[C@H]1C[C@@](OS(C)(=O)=O)(C(=O)OC)C[C@@H](OC(=O)c2ccccc2)[C@@H]1O | 46 to 47 °C |
| COc1ccccc1N1CCN(CCC(C(N)=O)(c2ccccn2)c2ccccc2[N+](=O)[O-])CC1 (centres undefined) | 63 to 72 °C |

| SMILES | melting point |
| --- | --- |
| COc1cc(OC)nc(N=C=S)n1 | 85 to 86 °C |
| O=C(C=P(c1ccccc1)(c1ccccc1)c1ccccc1)CCCOc1ccccc1 | 83 to 89 °C |
| Cn1c(=O)ccc2cnc(NCCc3ccccn3)nc21 | 155 to 156 °C |
| N#Cc1cccc(C2=Nc3ccc(C#Cc4ccc(F)cc4F)cc3NC(=O)C2)c1 | 240 to 246 °C |
| COC(CN1CCN(c2cccc(-n3cnc4cc(C(C)=O)ccc43)c2)CC1)=NOC(C)C | 120 to 121 °C |
| CC1(C)OCCc2c1n(Cc1ccccc1)c1ccccc21 | 132 to 134 °C |
| S=C(NC1CC1)N1CCc2[nH]cnc2C1 | 185 °C |
| O=C(O)Cc1cccc2ccoc12 | 115 to 118 °C |
| CSc1ccc(C(=O)c2ccc(SC)cc2O)cc1 | 113 to 114 °C |
| COCCOCCOc1ccc(C=O)cc1 | 44 to 47 °C |
| CCCSc1ccc(-c2coc3ccc(-c4nnc(C)o4)cc23)cc1 | 101 to 102 °C |
| CCNC1(c2ccccc2Cl)C(=O)N(Cc2ccc(C(=O)NC(C)(C)C)cc2)c2ccc(Cl)cc21 (centres undefined) | 190 to 195 °C |
| c1ccc2c(CN3CCN(Cc4ccc5c(c4)OCO5)CC3)n[nH]c2c1 | 175 to 176 °C |
| Cc1ccc(C(=O)Nc2ccc3[nH]cc(C4CCN(C)CC4)c3n2)s1 | 123 to 127 °C |
| c1ccc2c(c1)SCCc1c-2n(Cc2ccc(OCCCN3CCCCC3)cc2)c2ccccc12 | 70 to 71 °C |
| CCC12CCC3C4CCC(OC(C)=O)=CC4=CCC3C1CCC2OC(C)=O (centres undefined) | 148 to 156 °C |
| Oc1cc(Cl)cc(Br)c1 | 66 to 68 °C |
| CN1CC(CCN2CCOCC2)c2nc3ccccc3n2C1=O (centres undefined) | 111 to 112 °C |
